Test results taken from patent publication US9624161B2 (priority 2009, dated 2017).
“Also recorded” adds a separate entry of the source.

Legend:
[1] = tested on: estrogen related receptor (ERR-α, ERR-β and ERR-γ); test: Estrogen related receptor transactivation, DES versus Compound IV; format: cell-based; details: FIG. 12C
[2] = Oral bioavailability in dogs; format: in vivo; details: dog, plasma, depending on the formulation and route of administration
Protocol: Formulations using polyethylene glycol 300 (PEG300) generally produced higher exposures than microemulsions prepared in Tween 80 diluted in deionized water. […] Importantly, in dogs the exposure in the male 30 mg/kg PEG300 oral dose group exceeded the exposure necessary to produce the maximal effect on prostate reduction in the rat model of LH suppression.

rats = test: Gastrointestinal effects after oral administration in rats; format: in vivo, rat
[3] = tested on: healthy older male volunteers; test: Study 4: proof of concept study in healthy older male volunteers (1000, 1500, 2000 mg tablets, 28 days); format: in vivo, human; details: each dose arm (1000, 1500, 2000 mg)
[4] = tested on: men with advanced prostate cancer; test: Study 2: Phase 2 trial in men with advanced prostate cancer, Compound IV 1000 or 2000 mg daily versus leuprolide depot; format: in vivo, human; details: for Castrated (%) at Day 28 / Castrated (%) on both Day 28 and Day 60 / No. Castrated at Day 28 / No. Castrated on both Day 28 and Day 60: ITT; for Subjects that achieved castration (total T<50 ng/dL) by Day 60: subjects that reached Day 60; for % Reduction on PSA at Day 28 / Mean Free T at Day 28 / Mean Total T at Day 28: subjects castrated on both day 28 and day 60; for Castration (%): patients receiving >14 days; for Median free testosterone: Day 120; for Median increase in SHBG: Day 90
Protocol: This was a prospective, randomized 1:1:1, Phase 2 open-label, multicenter, trial comprised of men with advanced prostate cancer (n=159) initiating ADT with either oral daily doses of 1000 mg Compound IV, oral daily doses of 2000 mg Compound IV, or leuprolide depot (Lupron Depot® 4 month). It was conducted according to the Declaration of Helsinki, approved by appropriate research ethics committees, and each patient provided signed informed consent prior to registration and randomization. Patient demographlics are outlined in Table 24.
The trial required each subject to remain on the study for at least 60 days. […] Subjects that achieved castration by day 60 continued for up to 360 days to assess the safety of Compound IV over this dosing duration and to assess the maintenance of total testosterone levels ≦50 ng/dL.
The major inclusion criteria for the trial were: Males between 45-80 years of age; ECOG ≦2; screening serum total testosterone ≧150 ng/dL; no prior ADT (medical or surgical) unless the subject had been treated with LHRH agent for ≦6 months duration and that treatment was ≧1 years prior to screening.
The primary endpoint of the clinical trial was the proportion of patients that achieve ≦50 ng/dL total testosterone by Day 60. Secondary efficacy endpoints evaluated included serum concentrations of free testosterone, PSA, SHBG, safety and tolerability of Compound IV, incidence and frequency of hot flashes, serum bone turnover markers [bone specific alkaline phosphatase (BSAP) and c-terminal telopeptide (CTX)] and IGF-1 levels, an indicator of insulin resistance.
All serum hormone and PSA measurements were performed by a central laboratory utilizing standard techniques. Serum total testosterone concentrations were determined using a validated liquid chromatography-tandem mass spectrometry (LC/MS-MS) method. This is the assay platform that is current utilized for total testosterone by most major laboratories and provides values which are more accurate at the lower levels of testosterone found in women, children, hypogonadal men, and men on ADT. The percent free testosterone was determined by equilibrium dialysis. Free testosterone concentrations were calculated as the product of (total testosterone by LC/MS/MS) and (free fraction by equilibrium dialysis). This combination of approaches is considered to be the gold standard with which to measure free testosterone with excellent accuracy and validity (sensitivity and specificity).
Hot flash assessments were performed utilising a standard instrument to measure the frequency and severity of hot flashes, and data were compiled at baseline, Day 28 and Day 90. The men reported as experiencing hot flashes were those indicating any in the period between the respective time point and the prior patient visit. CTX (pg/ml) assayed by an electrochemiluminescent immunoassay and BSAP (U/L) assayed by immunoenzymatic methodology were measured as indicators of bone turnover. Serum IGF-1 levels were measured by liquid chromatography/mass spectrometry (LC/MS) at the same time each day (within a +/−60 minute window).
Simple descriptive statistics and graphics were used to present the characteristics of the study population. One way Analysis of Variance (PROC GLM with CONTRAST statement) methods were used to compare total testosterone percent change from baseline to Day 28, Day 60 and Day 90. Kaplan Meier survival analysis was used to estimate the proportion of subjects that reached castrate levels by Day 60 in each treatment arm based upon time to total testosterone of ≦50 ng/dL. Fisher Exact tests were used to compare rate of hot flashes at Day 28 and Day 90 among the two Compound IV and the leuprolide arms. One way ANOVA methods were also used to compare CTX and BSAP changes from baseline to Day 120 between treatment groups. The intent-to-treat (ITT) population consisted of all randomized patients who received at least one dose of Compound IV or leuprolide depot. […]

[5] = tested on: castrated male cynomolgus monkeys; test: Compound IV studies on castrated monkeys, 90 days (Example 22); format: in vivo, cynomolgus monkey
[6] = 1000 mg Compound IV, baseline to Day 120
[7] = preliminary analysis, Compound IV 2000 mg daily (41 assessed) or Lupron Depot (49 assessed)

## O=C(c1ccc(O)c(F)c1)N(c1ccc(O)cc1)c1ccc(F)cc1 [Compound IV, 3-fluoro-N-(4-fluorophenyl)-4-hydroxy-N-(4-hydroxyphenyl)benzamide]
[1]
  Effect on estrogen related receptor (ERR) transactivation: does not; also recorded: failed to crossreact
[2]
  bioavailability: 3 to 12%
rats; oral 30 mg/kg in rats
  Gastrointestinal motility and gastric acidity: significant increase
rats; oral 30 to 300 mg/kg in rats
  Peristalsis: significant increase
[3]
  SHBG increase over baseline: 300-600%
[4]; 1000 mg
  Median free testosterone in castrate men (total testosterone ≦50 ng/dL): 0.4 pg/mL
  Median increase in SHBG: 495%
[4]; 1000 mg Compound IV (n = 53)
  Castrated (%) at Day 28: 49%
  Castrated (%) on both Day 28 and Day 60: 30%
  No. Castrated at Day 28: 26
  No. Castrated on both Day 28 and Day 60: 16
[4]; 1000 mg Compound IV arm
  Subjects that achieved castration (total T<50 ng/dL) by Day 60: 43.4%
[4]; [6]
  Bone specific alkaline phosphatase (BSAP) percentage change: −26.3%
  C-terminal telopeptides (CTX) percentage change: −55.3%
[4]; 1000 mg Compound IV
  % Reduction on PSA at Day 28: 84%
  Mean Free T at Day 28: 1.0 ± 0.8 pg/mL
  Mean Total T at Day 28: 25 ± 15 ng/dL
[4]; 1000 mg QD, D28
  Castration (%): 50%
[4]; 1000 mg QD, D60
  Castration (%): 59.4%
[4]; 1000 mg QD, Ever
  Castration (%): 61.5%
[4]; 1000 mg arm
  Median free testosterone: 0.4 pg/mL
[4]; 1000 mg dose arm
  Subjects with a venous thromboembolism event (VTE): 9 subjects
[4]; 2000 mg
  Median free testosterone in castrate men (total testosterone ≦50 ng/dL): 0.3 pg/mL
  Median increase in SHBG: 583%
[4]; 2000 mg Compound IV (n = 55)
  Castrated (%) at Day 28: 56%
  Castrated (%) on both Day 28 and Day 60: 51%
  No. Castrated at Day 28: 31
  No. Castrated on both Day 28 and Day 60: 28
[4]; 2000 mg Compound IV arm
  Subjects that achieved castration (total T<50 ng/dL) by Day 60: 63.6%
[4]; 2000 mg Compound IV, baseline to Day 120
  Bone specific alkaline phosphatase (BSAP) percentage change: −22.6%
[4]; 2000 mg Compound IV
  % Reduction on PSA at Day 28: 73%
  Mean Free T at Day 28: 0.7 ± 0.7 pg/mL
  Mean Total T at Day 28: 19 ± 9 ng/dL
[4]; 2000 mg QD, D28
  Castration (%): 31%
[4]; 2000 mg QD, D60
  Castration (%): 79.6%
[4]; 2000 mg QD, Ever
  Castration (%): 84.6%
[4]; 2000 mg arm
  Median free testosterone: 0.3 pg/mL
[4]; 2000 mg dose arm
  Subjects with a venous thromboembolism event (VTE): 2 subjects
[4]; 28 days on therapy
  Percentage of treated ADT naïve patients (castrate population) below the Free T cutoff of 0.5 pg/ml: 28.3%
[4]; 45 days on therapy
  Percentage of treated ADT naïve patients (castrate population) below the Free T cutoff of 0.5 pg/ml: 50.9%
[4]; 120 days on therapy
  Percentage of treated ADT naïve patients (castrate population) below the Free T cutoff of 0.5 pg/ml: 58.1%
[4]; Day 90 visits
  Rate of hot flashes relative to that in the leuprolide treated group: ≤ 25%
[4]; Study 2 (FIG. 35)
  PSA level reached on average: < 0.2 µg/L
[4]; Study 2, 1000 mg daily (n = 53), Day 1 to Day 28
  Change in serum IGF-1 level: -75.2 ± 25.6 ng/mL
[4]; Study 2, 1000 mg daily (n = 53), Day 1 to Day 60
  Change in serum IGF-1 level: -73.7 ± 29.2 ng/mL
[4]; Study 2, 1000 mg daily (n = 53), Day 1 to Day 90
  Change in serum IGF-1 level: -73.1 ± 25.1 ng/mL
[4]; Study 2, 1000 mg daily (n = 53), Day 1 to Day 360
  Change in serum IGF-1 level: -35.2 ± 40.5 ng/mL
[4]; Study 2, 2000 mg daily (n = 55), Day 1 to Day 28
  Change in serum IGF-1 level: -78.6 ± 38.3 ng/mL
[4]; Study 2, 2000 mg daily (n = 55), Day 1 to Day 60
  Change in serum IGF-1 level: -77.7 ± 39.9 ng/mL
[4]; Study 2, 2000 mg daily (n = 55), Day 1 to Day 90
  Change in serum IGF-1 level: -72.7 ± 24.9 ng/mL
[4]; Study 2, 2000 mg daily (n = 55), Day 1 to Day 360
  Change in serum IGF-1 level: -33.4 ± 45.2 ng/mL
[4]; Study 2, all patients (FIG. 37)
  Mean SHBG for PSA responders (>50% reduction): 399%+85
[4]; day 90
  Reduction in reported hot flashes: greater than 4 fold
[4]; in vivo
  Increase in SHBG levels in men that responded: 200-600%
[4]; [7]
  Number of Subjects that Experienced a Hot Flash: 2
  Percent of Subjects that Experienced a Hot Flash: 5%
[4]; treatment naive patients (Study 2 and Study 5), after 28 days
  Induction of baseline SHBG: 150-700%
[4]; treatment naïve patients (Studies 2 and 5), after 7 days of therapy
  Patients with at least a 50% reduction in % FreeT: 81%
[4]; treatment naïve patients (Studies 2 and 5), after a month
  Patients with both at least a 50% reduction in % FreeT and a 50% reduction in PSA from baseline: 80%
[4]; treatment naïve patients, after 28 days
  Molar ratio of SHBG to Total T relative to leuprolide acetate treated patients: 3-7 fold
[4]; treatment naïve patients, day 28
  Drop in % FreeT: 70%
[5]; 1, 10, 100 mg/kg/day oral (groups 4, 5 and 6), within four weeks
  Serum PSA levels in castrate animals: significantly suppressed
[5]; after thirteen weeks of treatment
  Mean prostate weights at necropsy: significantly reduces
[5]; castrated animals treated with Compound IV
  Testosterone flare: not observed
